Measured values from ChEMBL document CHEMBL2163339, “Discovery of potent inhibitors of human and mouse fatty acid amide hydrolases” (J Med Chem, 2012).
Calls of active or inactive are those of the source.

Key:
[1] = biological target: T1, Fatty-acid amide hydrolase 1 (Mus musculus, UniProt O08914); experiment: Inhibition of mouse FAAH isolated from brain homogenate using [3H-ethanolamine]AEA as substrate incubated for 20 mins prior to substrate addition measured after 15 mins by beta counting analysis
T1 sequence (O08914 whole entry): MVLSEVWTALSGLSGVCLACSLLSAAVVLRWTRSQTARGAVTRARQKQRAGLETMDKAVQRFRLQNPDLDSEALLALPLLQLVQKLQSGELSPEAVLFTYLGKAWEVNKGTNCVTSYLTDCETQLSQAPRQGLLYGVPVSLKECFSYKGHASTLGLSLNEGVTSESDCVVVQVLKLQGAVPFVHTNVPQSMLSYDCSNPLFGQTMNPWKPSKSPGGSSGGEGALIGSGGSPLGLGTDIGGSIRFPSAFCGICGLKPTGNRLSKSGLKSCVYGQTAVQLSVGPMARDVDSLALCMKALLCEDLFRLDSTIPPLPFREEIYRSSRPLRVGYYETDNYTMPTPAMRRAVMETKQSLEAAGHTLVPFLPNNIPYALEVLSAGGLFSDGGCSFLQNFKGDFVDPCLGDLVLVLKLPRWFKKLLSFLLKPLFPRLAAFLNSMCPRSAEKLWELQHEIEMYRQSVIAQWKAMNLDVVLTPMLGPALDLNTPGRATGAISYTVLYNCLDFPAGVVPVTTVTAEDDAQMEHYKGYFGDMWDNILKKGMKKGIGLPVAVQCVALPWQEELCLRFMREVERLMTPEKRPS

[2] = biological target: Voltage-gated inwardly rectifying potassium channel KCNH2 (Homo sapiens, UniProt Q12809); experiment: Inhibition of human ERG expressed in CHOK1 cells for 5 mins by automated patch clamp assay; format: cell-based, CHO-K1
Sequence of Voltage-gated inwardly rectifying potassium channel KCNH2 (Q12809 whole entry): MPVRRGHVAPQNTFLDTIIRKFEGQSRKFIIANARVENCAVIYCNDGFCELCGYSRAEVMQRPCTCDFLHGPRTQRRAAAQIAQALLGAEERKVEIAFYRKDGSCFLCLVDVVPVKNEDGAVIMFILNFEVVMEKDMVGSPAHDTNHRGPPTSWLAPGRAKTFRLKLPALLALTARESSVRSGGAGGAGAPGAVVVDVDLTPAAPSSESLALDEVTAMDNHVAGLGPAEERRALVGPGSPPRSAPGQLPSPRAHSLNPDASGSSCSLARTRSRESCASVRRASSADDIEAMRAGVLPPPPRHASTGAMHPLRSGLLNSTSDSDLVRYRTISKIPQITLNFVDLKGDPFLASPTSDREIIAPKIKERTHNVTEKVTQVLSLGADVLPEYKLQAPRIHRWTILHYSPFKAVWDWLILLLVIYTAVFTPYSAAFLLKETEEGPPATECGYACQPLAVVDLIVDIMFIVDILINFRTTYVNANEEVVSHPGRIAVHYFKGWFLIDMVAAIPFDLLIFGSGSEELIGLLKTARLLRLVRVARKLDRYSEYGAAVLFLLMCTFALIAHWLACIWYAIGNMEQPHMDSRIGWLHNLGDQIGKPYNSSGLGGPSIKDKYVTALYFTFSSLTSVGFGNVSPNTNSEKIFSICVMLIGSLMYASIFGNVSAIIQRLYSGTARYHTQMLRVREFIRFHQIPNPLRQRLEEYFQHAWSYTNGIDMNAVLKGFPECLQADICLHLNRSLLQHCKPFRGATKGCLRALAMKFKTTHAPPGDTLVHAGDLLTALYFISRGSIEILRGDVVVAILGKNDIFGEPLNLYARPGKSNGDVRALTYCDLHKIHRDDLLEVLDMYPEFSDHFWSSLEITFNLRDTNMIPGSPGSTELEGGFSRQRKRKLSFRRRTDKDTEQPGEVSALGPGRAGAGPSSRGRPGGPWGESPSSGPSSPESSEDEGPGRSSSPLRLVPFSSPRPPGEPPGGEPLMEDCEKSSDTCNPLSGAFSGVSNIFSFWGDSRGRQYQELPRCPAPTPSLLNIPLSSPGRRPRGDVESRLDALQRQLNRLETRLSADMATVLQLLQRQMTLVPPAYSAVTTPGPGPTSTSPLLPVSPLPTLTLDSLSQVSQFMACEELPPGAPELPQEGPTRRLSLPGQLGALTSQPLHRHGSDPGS

[3] = biological target: T2, Monoglyceride lipase (Mus musculus) (UniProt O35678); experiment: Inhibition of MAGL-mediated 2AG hydrolysis in mouse brain homogenate using [3H]2OG as substrate incubated for 20 mins prior to substrate addition; format: tissue-based
T2 sequence (whole entry): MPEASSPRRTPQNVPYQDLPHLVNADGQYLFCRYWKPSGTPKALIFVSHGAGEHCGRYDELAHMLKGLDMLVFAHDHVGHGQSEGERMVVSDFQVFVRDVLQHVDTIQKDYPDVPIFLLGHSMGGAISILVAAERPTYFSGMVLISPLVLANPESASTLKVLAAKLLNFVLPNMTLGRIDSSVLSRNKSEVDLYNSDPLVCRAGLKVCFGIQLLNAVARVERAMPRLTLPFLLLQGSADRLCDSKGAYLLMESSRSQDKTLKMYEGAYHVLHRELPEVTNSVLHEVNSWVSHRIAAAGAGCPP

Mus musculus [4] = organism: Mus musculus; experiment: Inhibition of DAGL-mediated 2AG synthesis in mouse brain homogenate using […] as substrate incubated for 20 mins prior to substrate addition; format: tissue-based
[5] = biological target: T3, N-acyl-phosphatidylethanolamine-hydrolyzing phospholipase D (Mus musculus) (UniProt Q8BH82); experiment: Inhibition of NAPE-PLD-meidated AEA synthesis in mouse brain homogenate using [3H]NArPE as substrate incubated for 20 mins prior to substrate addition; format: tissue-based
T3 sequence (whole entry): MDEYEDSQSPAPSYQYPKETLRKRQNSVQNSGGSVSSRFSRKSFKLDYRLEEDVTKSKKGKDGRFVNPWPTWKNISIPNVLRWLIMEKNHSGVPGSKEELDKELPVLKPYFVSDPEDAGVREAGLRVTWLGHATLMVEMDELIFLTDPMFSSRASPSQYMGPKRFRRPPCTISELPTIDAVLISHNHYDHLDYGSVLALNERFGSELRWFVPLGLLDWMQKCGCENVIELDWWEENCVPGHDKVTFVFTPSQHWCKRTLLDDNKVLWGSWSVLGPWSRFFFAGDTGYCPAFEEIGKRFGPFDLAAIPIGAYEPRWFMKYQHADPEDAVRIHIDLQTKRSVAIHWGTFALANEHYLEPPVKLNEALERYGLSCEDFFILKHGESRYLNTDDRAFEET

[6] = biological target: Transient receptor potential cation channel subfamily V member 1 (Mus musculus) (UniProt Q704Y3); experiment: Displacement of [3H]RTX from TRPV1 receptor in mouse brain fraction; format: tissue-based
Sequence of Transient receptor potential cation channel subfamily V member 1 (Mus musculus) (Q704Y3 whole entry): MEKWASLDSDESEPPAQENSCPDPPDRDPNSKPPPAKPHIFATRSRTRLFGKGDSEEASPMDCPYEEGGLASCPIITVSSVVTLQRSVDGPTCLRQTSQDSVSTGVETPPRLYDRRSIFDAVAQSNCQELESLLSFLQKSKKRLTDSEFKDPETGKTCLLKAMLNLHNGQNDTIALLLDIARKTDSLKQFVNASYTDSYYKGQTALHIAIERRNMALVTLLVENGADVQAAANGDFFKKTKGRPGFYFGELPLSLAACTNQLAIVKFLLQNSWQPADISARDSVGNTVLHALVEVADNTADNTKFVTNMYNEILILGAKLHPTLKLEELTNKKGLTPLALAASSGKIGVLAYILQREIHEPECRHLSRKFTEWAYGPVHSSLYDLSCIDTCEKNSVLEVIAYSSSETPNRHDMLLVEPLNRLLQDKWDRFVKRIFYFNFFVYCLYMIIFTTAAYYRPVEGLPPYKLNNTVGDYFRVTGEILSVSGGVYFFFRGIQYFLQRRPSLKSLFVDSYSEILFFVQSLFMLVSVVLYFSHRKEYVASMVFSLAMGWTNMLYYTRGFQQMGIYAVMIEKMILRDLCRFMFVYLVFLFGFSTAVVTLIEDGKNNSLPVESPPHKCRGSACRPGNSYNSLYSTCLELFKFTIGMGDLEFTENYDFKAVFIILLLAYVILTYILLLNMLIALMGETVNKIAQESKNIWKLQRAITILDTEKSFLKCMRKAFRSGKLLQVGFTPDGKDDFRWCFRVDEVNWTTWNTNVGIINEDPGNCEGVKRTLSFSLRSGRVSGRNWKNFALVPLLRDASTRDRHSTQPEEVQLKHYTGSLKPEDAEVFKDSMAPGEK

[7] = biological target: Cannabinoid receptor 2 (Mus musculus) (UniProt P47936); experiment: Displacement of [3H]CP55.940 from CB2 receptor in mouse spleen fraction; format: tissue-based
Sequence of Cannabinoid receptor 2 (Mus musculus) (P47936 whole entry): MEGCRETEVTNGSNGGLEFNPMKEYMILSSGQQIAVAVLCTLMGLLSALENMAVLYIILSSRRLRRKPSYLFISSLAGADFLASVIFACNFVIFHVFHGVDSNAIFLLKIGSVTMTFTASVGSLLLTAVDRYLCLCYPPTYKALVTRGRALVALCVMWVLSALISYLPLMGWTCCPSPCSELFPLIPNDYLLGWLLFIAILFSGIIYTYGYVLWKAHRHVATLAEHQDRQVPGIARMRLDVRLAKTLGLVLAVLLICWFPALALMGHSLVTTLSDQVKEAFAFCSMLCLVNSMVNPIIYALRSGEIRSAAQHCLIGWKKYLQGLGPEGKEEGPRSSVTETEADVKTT

[8] = biological target: Cannabinoid receptor 1 (Mus musculus) (UniProt P47746); experiment: Displacement of [3H]CP55.940 from CB1 receptor in mouse brain fraction; format: tissue-based
Sequence of Cannabinoid receptor 1 (Mus musculus) (P47746 whole entry): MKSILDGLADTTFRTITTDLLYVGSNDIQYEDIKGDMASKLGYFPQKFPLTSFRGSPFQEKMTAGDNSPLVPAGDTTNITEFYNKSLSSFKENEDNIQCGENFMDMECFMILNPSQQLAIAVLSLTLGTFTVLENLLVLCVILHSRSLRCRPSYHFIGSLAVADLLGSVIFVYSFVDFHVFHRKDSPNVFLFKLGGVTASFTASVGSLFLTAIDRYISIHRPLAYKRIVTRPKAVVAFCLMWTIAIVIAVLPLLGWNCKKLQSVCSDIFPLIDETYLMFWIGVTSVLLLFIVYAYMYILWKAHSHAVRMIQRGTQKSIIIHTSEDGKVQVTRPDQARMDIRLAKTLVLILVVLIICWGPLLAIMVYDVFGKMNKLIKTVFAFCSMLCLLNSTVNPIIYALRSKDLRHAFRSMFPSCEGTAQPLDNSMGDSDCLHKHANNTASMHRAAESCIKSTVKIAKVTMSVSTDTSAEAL

[9] = biological target: T4, Fatty-acid amide hydrolase 1 (Mus musculus) (UniProt O08914); experiment: Non-competitive inhibition of mouse FAAH isolated from brain homogenate using [3H-ethanolamine]AEA as substrate by Lineweaver-Burk plot analysis
T4 sequence (whole entry): T1 sequence (O08914 whole entry)

[10] = biological target: T4, Fatty-acid amide hydrolase 1 (Mus musculus); experiment: Reversible inhibition of mouse FAAH isolated from brain homogenate using [3H-ethanolamine]AEA as substrate incubated for 20 mins prior to substrate addition measured after 18 hrs by […] method
Rattus norvegicus [11] = experiment: Analgesic activity in rat assessed as increase in paw withdrawal threshold at 100 mg/kg, po; format: functional, organism-based; set-up: dose 100 mg/kg
Rattus norvegicus [12] = experiment: Analgesic activity in rat assessed as increase in paw withdrawal threshold at 30 mg/kg, po; format: functional, organism-based; set-up: dose 30 mg/kg
Mus musculus [13] = experiment: Anxiolytic activity in mouse at 30 mg/kg, po measured for 5 mins by elevated plus maze test; format: organism-based; set-up: dose 30 mg/kg, route oral; details: in vivo
Rattus norvegicus [14] = experiment: Analgesic activity in rat assessed as increase in paw withdrawal threshold at 10 mg/kg, po; format: functional, organism-based; set-up: dose 10 mg/kg
Mus musculus [15] = experiment: Anxiolytic activity in mouse at 10 mg/kg, po measured for 5 mins by elevated plus maze test; format: organism-based; set-up: dose 10 mg/kg, route oral; details: in vivo
Mus musculus [16] = experiment: Toxicity against CD1 mouse assessed as limbic/striatal stereotypies at 100 mg/kg, po at 240 mins by Irwin test; format: organism-based; set-up: dose 100 mg/kg, route oral; details: in vivo, 4 h
Mus musculus [17] = experiment: Anxiolytic activity in mouse at 3 mg/kg, po measured for 5 mins by elevated plus maze test; format: organism-based; set-up: dose 3 mg/kg, route oral; details: in vivo
Mus musculus [18] = experiment: Toxicity against CD1 mouse assessed as limbic/striatal stereotypies at 30 mg/kg, po at 240 mins by Irwin test; format: organism-based; set-up: dose 30 mg/kg, route oral; details: in vivo, 4 h
Mus musculus [19] = experiment: Toxicity against CD1 mouse assessed as limbic/striatal stereotypies at 10 mg/kg, po at 240 mins by Irwin test; format: organism-based; set-up: dose 10 mg/kg, route oral; details: in vivo, 4 h
Mus musculus [20] = experiment: Toxicity against CD1 mouse assessed as limbic/striatal stereotypies at 30 mg/kg, po at 60 mins by Irwin test; format: organism-based; set-up: dose 30 mg/kg, route oral; details: in vivo, 1 h
Mus musculus [21] = experiment: Toxicity against CD1 mouse assessed as limbic/striatal stereotypies at 100 mg/kg, po at 60 mins by Irwin test; format: organism-based; set-up: dose 100 mg/kg, route oral; details: in vivo, 1 h
Mus musculus [22] = experiment: Toxicity against CD1 mouse assessed as limbic/striatal stereotypies at 10 mg/kg, po at 60 mins by Irwin test; format: organism-based; set-up: dose 10 mg/kg, route oral; details: in vivo, 1 h
[23] = biological target: T5, Fatty-acid amide hydrolase 1 (Homo sapiens, UniProt O00519); experiment: Inhibition of human recombinant FAAH
T5 sequence (O00519 whole entry): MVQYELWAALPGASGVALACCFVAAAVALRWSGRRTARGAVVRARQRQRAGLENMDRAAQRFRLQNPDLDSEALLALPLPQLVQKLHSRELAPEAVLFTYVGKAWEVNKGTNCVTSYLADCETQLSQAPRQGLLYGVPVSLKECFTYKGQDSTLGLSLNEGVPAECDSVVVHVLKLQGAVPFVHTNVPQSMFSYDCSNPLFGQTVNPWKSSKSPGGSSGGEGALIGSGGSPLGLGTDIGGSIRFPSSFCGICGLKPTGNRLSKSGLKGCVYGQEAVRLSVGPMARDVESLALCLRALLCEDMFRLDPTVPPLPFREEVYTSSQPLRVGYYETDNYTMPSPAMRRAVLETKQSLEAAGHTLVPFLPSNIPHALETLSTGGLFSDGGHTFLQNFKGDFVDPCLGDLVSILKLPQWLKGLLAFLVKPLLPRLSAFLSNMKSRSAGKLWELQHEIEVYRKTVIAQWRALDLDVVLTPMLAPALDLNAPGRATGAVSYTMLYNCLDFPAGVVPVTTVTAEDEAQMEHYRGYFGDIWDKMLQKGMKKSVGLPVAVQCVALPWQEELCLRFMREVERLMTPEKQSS

C#CCCCCCCCCCOC(=O)c1ccn(-c2cccc(OC(=O)NCCCC)c2)c1
IC50 [1]: > 70 nM

CCCCNC(=O)Oc1cccc(-c2cc(C(N)=O)c(C)o2)c1
IC50 [1]: > 200 nM

Cc1cc(C(N)=O)c(-c2cccc(OC(=O)NCCCCCCc3ccccc3)c2)s1
IC50 [2]: > 10000 nM | inhibition [3]: inactive | inhibition (Mus musculus [4]): inactive | inhibition [5]: inactive | Activity [6]: inactive | Activity [7]: inactive | Activity [8]: inactive | inhibition [9]: Active | inhibition [10]: Active | IC50 [1]: 1.9 nM | Ki [1]: 0.5 nM

NC(=O)c1ccn(-c2cccc(OC(=O)NCCOCCOc3c(F)cc(F)cc3F)c2)c1
IC50 [1]: 43 nM | Ki [1]: 11 nM

O=C(NC1CCCCC1)Oc1cccc(-n2ccc(C(=O)OCCCCCCc3ccccc3)c2)c1
IC50 [1]: > 50000 nM

Cc1cc(C(N)=O)c(-c2cccc(OC(=O)NC3CCCCC3)c2)o1
IC50 [1]: > 70 nM

Cc1oc(-c2cccc(OC(=O)NCCCCCCc3ccccc3)c2)cc1C(N)=O
IC50 [1]: 18 nM | Ki [1]: 4.8 nM

NC(=O)c1ccn(-c2cccc(OC(=O)NC3CCCCC3)c2)c1
IC50 [1]: 120 nM | Ki [1]: 32 nM

CCCCNC(=O)Oc1cccc(-c2sc(C)cc2C(N)=O)c1
IC50 [1]: > 200 nM

NC(=O)c1ccn(-c2cccc(OC(=O)NCCOCCOc3ccccc3F)c2)c1
IC50 [1]: 69 nM | Ki [1]: 18 nM

COc1cccc(-c2c(C(=O)NCCCCCc3ccccc3)cc(C)n2Cc2ccccc2)c1
IC50 [1]: > 50000 nM

Cc1cc(C(N)=O)c(-c2cccc(OC(=O)NC3CCCCC3)c2)s1
IC50 [1]: > 200 nM

COc1cccc(-c2c(C(=O)NCCCCCCc3ccccc3)cc(C)n2Cc2ccccc2)c1
IC50 [1]: > 200 nM

Cc1cc(C(N)=O)c(-c2cccc(OC(=O)NCCCCCCc3ccccc3)c2)o1
Activity (Rattus norvegicus [11]): Active | Activity (Rattus norvegicus [12]): Active | Activity (Mus musculus [13]): Non-toxic | Activity (Rattus norvegicus [14]): inactive | Activity (Mus musculus [15]): Non-toxic | Activity (Mus musculus [16]): Non-toxic | Activity (Mus musculus [17]): Non-toxic | Activity (Mus musculus [18]): Non-toxic | Activity (Mus musculus [19]): Non-toxic | Activity (Mus musculus [20]): Toxic | Activity (Mus musculus [21]): Toxic | Activity (Mus musculus [22]): Toxic | IC50 [2]: > 10000 nM | inhibition [3]: inactive | inhibition (Mus musculus [4]): inactive | inhibition [5]: inactive | Activity [6]: inactive | Activity [7]: inactive | Activity [8]: inactive | IC50 [23]: 102 nM | IC50 [1]: 1.7 nM | Ki [1]: 0.49 nM
